The subject of one test is CD8+ T-cells. Description: In vitro T-cell priming assay with aAPCs loaded with peptide/MHC and anti-CD28, pMHC multimer readout. The format is cell-based, human. Particulars: HLA-A*02 restricted peptides; positive wells among evaluable. The source says:
In order to obtain information regarding the immunogenicity of the TUMAPs of the present invention, the inventors performed investigations using an in vitro T-cell priming assay based on repeated stimulations of CD8+ T-cells with artificial antigen presenting cells (aAPCs) loaded with peptide/MHC complexes and anti-CD28 antibody.
In order to perform in vitro stimulations by artificial antigen presenting cells loaded with peptide-MHC complex (pMHC) and anti-CD28 antibody, the inventors first isolated CD8+ T-cells from fresh HLA-A*02 leukapheresis products via positive selection using CD8 microbeads (Miltenyi Biotec, Bergisch-Gladbach, Germany) of healthy donors obtained from the University clinics Mannheim, Germany, after informed consent.
PBMCs and isolated CD8+ lymphocytes were incubated in T-cell medium (TCM) until use consisting of RPMI-Glutamax (Invitrogen, Karlsruhe, Germany) supplemented with 10% heat inactivated human AB serum (PAN-Biotech, Aidenbach, Germany), 100 U/ml Penicillin/100 μg/ml Streptomycin (Cambrex, Cologne, Germany), 1 mM sodium pyruvate (CC Pro, Oberdorla, Germany), 20 μg/ml Gentamycin (Cambrex). 2.5 ng/ml IL-7 (PromoCell, Heidelberg, Germany) and 10 U/ml IL-2 (Novartis Pharma, Nürnberg, Germany) were also added to the TCM at this step.
Generation of pMHC/anti-CD28 coated beads, T-cell stimulations and readout was performed in a highly defined in vitro system using four different pMHC molecules per stimulation condition and 8 different pMHC molecules per readout condition.
The purified co-stimulatory mouse IgG2a anti human CD28 Ab 9.3 (Jung et al., 1987) was chemically biotinylated using Sulfo-N-hydroxysuccinimidobiotin as recommended by the manufacturer (Perbio, Bonn, Germany). Beads used were 5.6 μm diameter streptavidin coated polystyrene particles (Bangs Laboratories, Illinois, USA).
800.000 beads/200 μl were coated in 96-well plates in the presence of 4×12.5 ng different biotin-pMHC, washed and 600 ng biotin anti-CD28 were added subsequently in a volume of 200 μl. Stimulations were initiated in 96-well plates by co-incubating 1×10^6 CD8+ T-cells with 2×10^5 washed coated beads in 200 μl TCM supplemented with 5 ng/ml IL-12 (PromoCell) for 3 days at 37° C. Half of the medium was then exchanged by fresh TCM supplemented with 80 U/ml IL-2 and incubating was continued for 4 days at 37° C. This stimulation cycle was performed for a total of three times. For the pMHC multimer readout using 8 different pMHC molecules per condition, a two-dimensional combinatorial coding approach was used as previously described (Andersen et al., 2012) with minor modifications encompassing coupling to 5 different fluorochromes. Finally, multimeric analyses were performed by staining the cells with Live/dead near IR dye (Invitrogen, Karlsruhe, Germany), CD8-FITC antibody clone SK1 (BD, Heidelberg, Germany) and fluorescent pMHC multimers. For analysis, a BD LSRII SORP cytometer equipped with appropriate lasers and filters was used. Peptide specific cells were calculated as percentage of total CD8+ cells. Evaluation of multimeric analysis was done using the FlowJo software (Tree Star, Oreg., USA). In vitro priming of specific multimer+ CD8+ lymphocytes was detected by comparing to negative control stimulations.

In a further test the target is HLA-A*02:01 (Homo sapiens, UniProt P04439, D140Y/D185E/D98H/E176V/E277Q/G131W/G231S/I119V/I121R/I166T/I218V/L300P/L318F/N151K/N90K/P208A/P217A/Q86G/Q94H/R138H/R169H/T345S). Description: MHC binding assay (UV-ligand exchange, beta2m ELISA, peptide exchange yield). Particulars: binding to HLA-A*02:01. The gist of the method: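 Peptide–HLA-A*02:01 complexes formed by UV-ligand exchange, in which a UV-cleavable peptide is replaced by the test peptide. Exchange products, diluted 100-fold, were captured on streptavidin plates and detected with HRP anti-β2m ELISA at 450 nm. Yield was quantified against refolded monomer standards at 15-500 ng/ml.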
Background: In an ELISA, binding on a coated surface is turned into a signal by an enzyme label.

For “22 (GLIDEVMVL; listed as Homo sapiens) [compound 22]”, the “Wells positive [%]” value in the test on CD8+ T-cells is ““++” (20%-49% = ++)”. In addition, the “Peptide exchange (MHC class I binding score, peptide exchange yield)” value (from here on “Peptide exchange”) with HLA-A*02:01 was ““+++” (≥50 = +++)”.
“31 (LLYGKYVSV; listed as Homo sapiens) [compound 31]”: the “Wells positive [%]” value with CD8+ T-cells is given as ““++” (20%-49% = ++)”. Moreover, the “Peptide exchange” value with HLA-A*02:01 is reported as ““+++” (≥50 = +++)”.
The matching figures for “32 (KLNTETFGV; listed as Homo sapiens) [compound 32]”: ““++” (20%-49% = ++)” and ““++” (≥20% = ++)”.
Take “37 (GLFAGLGGAGA; listed as Homo sapiens) [compound 37]”: the “Wells positive [%]” value with CD8+ T-cells is on record as ““+” (<20% = +)”. The “Peptide exchange” value with HLA-A*02:01 is reported as ““+++” (≥50 = +++)”.
In the case of “38 (SLAPTPVSA; listed as Homo sapiens) [compound 38]”, in the test on CD8+ T-cells, the “Wells positive [%]” value was ““+” (<20% = +)”. For the same substance, in the test with HLA-A*02:01, the “Peptide exchange” value is given as ““++” (≥20% = ++)”.
As to “42 (SILDDSFKL; listed as Homo sapiens) [compound 42]”, the “Wells positive [%]” value in the test on CD8+ T-cells is ““+” (<20% = +)”. Besides, in the test with HLA-A*02:01, the “Peptide exchange” value is recorded as ““++++” (≥75% = ++++)”.
The corresponding values for “47 (KLYERCEVV; listed as Homo sapiens) [compound 47]” are ““+” (<20% = +)” and ““++” (≥20% = ++)”.
The corresponding values for “59 (LLTDNVVKL; listed as Homo sapiens) [compound 59]” are ““+” (<20% = +)” and ““+++” (≥50 = +++)”.
As for “64 (KTLGKLWRL; listed as Homo sapiens) [compound 64]”, the “Wells positive [%]” value in the test on CD8+ T-cells is ““++++” (> = 70% = ++++)”. Moreover, the “Peptide exchange” value with HLA-A*02:01 is recorded as ““++” (≥20% = ++)”.
The matching figures for “123 (KTLERSYLL; listed as Homo sapiens) [compound 123]”: ““+” (<20% = +)” and ““++” (≥20% = ++)”.
The matching figures for “124 (RVLPPSALQSV; listed as Homo sapiens) [compound 124]”: ““+” (<20% = +)” and ““+++” (≥50 = +++)”.
Turning to “127 (RLAELTVDEFLA; listed as Homo sapiens) [compound 127]”, the “Wells positive [%]” value in the test with CD8+ T-cells was ““+” (<20% = +)”. Besides, the “Peptide exchange” value in the test with HLA-A*02:01 is ““+++” (≥50 = +++)”.
The matching figures for “132 (ALLNAILHSA; listed as Homo sapiens) [compound 132]”: ““+” (<20% = +)” and ““+++” (≥50 = +++)”.
With “133 (RTFEKIEEV; listed as Homo sapiens) [compound 133]”, the “Wells positive [%]” value with CD8+ T-cells is reported as ““+” (<20% = +)”. The “Peptide exchange” value in the test with HLA-A*02:01 is ““++” (≥20% = ++)”.
On to “136 (KLFDIFSQQV; listed as Homo sapiens) [compound 136]”, for which, in the test on CD8+ T-cells, the “Wells positive [%]” value is given as ““++” (20%-49% = ++)”. In the test with HLA-A*02:01, the “Peptide exchange” value was ““+++” (≥50 = +++)”.
The corresponding values for “141 (AVIEHLERL; listed as Homo sapiens) [compound 141]” are ““+” (<20% = +)” and ““++++” (≥75% = ++++)”.
As to “142 (SLVQRVETI; listed as Homo sapiens) [compound 142]”, in the test with CD8+ T-cells, the “Wells positive [%]” value is given as ““+” (<20% = +)”. Besides, the “Peptide exchange” value with HLA-A*02:01 is on record as ““+++” (≥50 = +++)”.
As to “150 (RLADLEALKV; listed as Homo sapiens) [compound 150]”, the “Wells positive [%]” value in the test with CD8+ T-cells is ““++″ (20%-49% = ++)”. Further, the “Peptide exchange” value in the test with HLA-A*02:01 is on record as ““+++” (≥50 = +++)”.
